According to US20100063007A1, “PESTICIDE C[…]-[…] AND AN I[…] SUBSTANCE” (BAYER CROPSCIENCE AG, priority 2006, published 2010):

How the values were obtained:
Plutella xylostella = test: Efficacy Example A: Plutella xylostella test (cabbage leaf dip, larval mortality); format: in vivo; conditions: mortality of larvae after 6 days
Protocol: Efficacy Example A: Plutella xylostella Test
(§1) After a period of time of 6 days, the mortality is determined. 100% means that all the caterpillars have been killed; 0% means that none of the caterpillars have been killed.

Spodoptera frugiperda = test: Efficacy Example B: Spodoptera frugiperda test (cabbage leaf dip, larval mortality); format: in vivo; conditions: mortality of larvae after 6 days
Protocol: Efficacy Example B: Spodoptera frugiperda Test
as §1

CN/C(=N\[N+](=O)[O-])NCc1cnc(Cl)s1 [clothianidin]
Efficacy (%) (Plutella xylostella; rate of application 100 ppm): 80%

O=[N+]([O-])NC1=NCCN1Cc1ccc(Cl)nc1 [imidacloprid]
Efficacy (%) (Spodoptera frugiperda; rate of application 4 ppm): 30%

N#C/N=C1\SCCN1Cc1ccc(Cl)nc1 [thiacloprid]
Efficacy (%) (Plutella xylostella; rate of application 20 ppm): 5%

CN1COCN(Cc2cnc(Cl)s2)/C1=N\[N+](=O)[O-] [thiamethoxam]
Efficacy (%) (Spodoptera frugiperda; rate of application 20 ppm): 0%
